Laboratory results as given in US9796733B2, “Imidazo-pyrazine derivatives useful as soluble guanylate cyclase activators” (Merck Sharp & Dohme Corp., priority 2014, dated 2017).
pEC50: −log10 of the molar value.

Target: T1, sGC α1/β1 heterodimer (Homo sapiens, UniProt Q02108+Q02153)
T1 construct: expressed in transfected cells; host or cells: CHO-K1 (clone #7, CHO-K1/sGC)
T1 sequence (Q02108 1-690): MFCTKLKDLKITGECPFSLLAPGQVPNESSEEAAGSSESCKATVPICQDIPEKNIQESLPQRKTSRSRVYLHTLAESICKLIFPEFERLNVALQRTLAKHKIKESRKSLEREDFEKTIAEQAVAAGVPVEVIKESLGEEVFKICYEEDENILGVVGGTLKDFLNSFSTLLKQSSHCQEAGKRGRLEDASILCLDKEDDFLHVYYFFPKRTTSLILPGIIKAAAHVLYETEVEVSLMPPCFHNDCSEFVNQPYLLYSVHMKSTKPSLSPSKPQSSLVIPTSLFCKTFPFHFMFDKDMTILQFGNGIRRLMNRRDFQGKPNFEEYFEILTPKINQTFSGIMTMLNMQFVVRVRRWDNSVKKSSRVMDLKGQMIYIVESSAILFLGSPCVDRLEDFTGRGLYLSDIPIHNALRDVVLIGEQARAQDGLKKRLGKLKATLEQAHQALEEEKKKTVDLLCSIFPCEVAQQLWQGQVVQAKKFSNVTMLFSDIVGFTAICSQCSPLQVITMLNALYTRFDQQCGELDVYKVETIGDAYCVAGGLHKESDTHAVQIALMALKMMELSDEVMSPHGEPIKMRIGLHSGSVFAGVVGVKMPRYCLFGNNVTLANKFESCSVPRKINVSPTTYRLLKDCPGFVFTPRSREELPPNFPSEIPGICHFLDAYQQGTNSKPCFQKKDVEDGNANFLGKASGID
T1 sequence (Q02153 1-619): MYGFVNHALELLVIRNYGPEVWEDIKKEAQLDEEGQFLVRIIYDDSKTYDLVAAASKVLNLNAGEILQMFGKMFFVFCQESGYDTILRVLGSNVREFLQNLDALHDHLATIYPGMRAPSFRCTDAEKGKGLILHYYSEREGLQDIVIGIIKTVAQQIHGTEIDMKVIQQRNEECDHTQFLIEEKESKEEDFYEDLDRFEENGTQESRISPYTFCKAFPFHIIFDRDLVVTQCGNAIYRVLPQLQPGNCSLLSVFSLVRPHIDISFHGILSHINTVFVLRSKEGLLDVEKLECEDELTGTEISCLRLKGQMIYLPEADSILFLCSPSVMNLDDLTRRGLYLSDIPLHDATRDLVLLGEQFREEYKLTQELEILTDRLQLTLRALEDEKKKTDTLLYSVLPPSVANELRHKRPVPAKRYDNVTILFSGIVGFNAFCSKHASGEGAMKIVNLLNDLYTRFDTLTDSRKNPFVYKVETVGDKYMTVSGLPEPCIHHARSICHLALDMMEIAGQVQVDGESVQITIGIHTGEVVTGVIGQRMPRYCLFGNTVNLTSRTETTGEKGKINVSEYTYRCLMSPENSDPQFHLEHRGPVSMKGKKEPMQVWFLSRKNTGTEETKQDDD
Assay: Cell-based sGC functional assay (CASA assay): cGMP generation in CHO-K1/sGC cells, HTRF detection
Settings: for Emax: CHO-K1, percent activation relative to standard Compound A in CHO-K1/sGC cells, read-out: % Act.; for pEC50: inflection point (IP) of cGMP generation in CHO-K1/sGC cells, 4P fit, activity expressed as percentage of Compound A
How it was run: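 cGMP was quantified by HTRF after 1 hr, 37° C exposure of thawed CHO-K1 cells expressing sGC α1/β1 to compound, with or without 1 μM DETA-NO. IBMX (0.5 mM) blocked cGMP breakdown, and DMSO was 2.5% final. Percent of standard Compound A's maximal cGMP was fitted (4P) for inflection point.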

| Compound | Emax | pEC50 | % Act. (percent activation relative to standard Compound A in CHO-K1/sGC cells) |
| --- | --- | --- | --- |
| CC1(c2ccc(Cl)cc2)C(=O)Nc2nc(-c3cn4cc(C(F)(F)F)nc4c(Cc4cccc(F)c4)n3)nc(N)c21 (centres unmarked) [Example 150A, 4-amino-5-(4-chlorophenyl)-2-(8-(3-fluorobenzyl)-2-(trifluoromethyl)imidazo[1,2-a]pyrazin-6-yl)-5-methyl-5H-pyrrolo[2,3-d]pyrimidin-6(7H)-one] | 122% | 7.54 | – |
| CC(C)C1(C)C(=O)Nc2nc(-c3cn4ccnc4c(Cc4ccccc4)n3)nc(N)c21 (single isomer, unassigned) [Example 80B, 4-amino-2-(8-benzylimidazo[1,2-a]pyrazin-6-yl)-5-isopropyl-5-methyl-5H-pyrrolo[2,3-d]pyrimidin-6(7H)-one] | 88% | 6.60 | – |
| Cc1nnc(C2(C)C(=O)Nc3nc(-c4cn5ccnc5c(CCC(F)(F)C(F)(F)F)n4)nc(N)c32)s1 (centres unmarked) [Example 58A, 4-amino-5-methyl-5-(5-methyl-1,3,4-thiadiazol-2-yl)-2-(8-(3,3,4,4,4-pentafluorobutyl)imidazo[1,2-a]pyrazin-6-yl)-5H-pyrrolo[2,3-d]pyrimidin-6(7H)-one] | 93% | 6.20 | – |
| CC1(C)C(=O)Nc2nc(-c3cn4ccnc4c(Cc4ccc(F)c(F)c4)n3)nc(N)c21 [Example 73, 4-amino-2-(8-(3,4-difluorobenzyl)imidazo[1,2-a]pyrazin-6-yl)-5,5-dimethyl-5H-pyrrolo[2,3-d]pyrimidin-6(7H)-one] | 111% | 7.36 | – |
| CCc1nc(C2(C)C(=O)Nc3nc(-c4cn5ccnc5c(CCC(F)(F)C(F)(F)F)n4)nc(N)c32)no1 (centres unmarked) [Example 320B, 4-amino-5-(5-ethyl-1,2,4-oxadiazol-3-yl)-5-methyl-2-(8-(3,3,4,4,4-pentafluorobutyl)imidazo[1,2-a]pyrazin-6-yl)-5H-pyrrolo[2,3-d]pyrimidin-6(7H)-one] | 204% | 7.07 | – |
| Nc1nc(-c2cn3ccnc3c(CCCC(F)(F)F)n2)nc2c1C(c1ncc(C(F)(F)F)cc1Cl)(C1CC1)C(=O)N2 (single isomer, unassigned) [Example 370B, 4-amino-5-(3-chloro-5-(trifluoromethyl)pyridin-2-yl)-5-cyclopropyl-2-(8-(4,4,4-trifluorobutyl)imidazo[1,2-a]pyrazin-6-yl)-5H-pyrrolo[2,3-d]pyrimidin-6(7H)-one] | 99% | 6.58 | – |
| CCCCc1nc(-c2nc(N)c3c(n2)NC(=O)C3(c2cc(C(F)(F)F)ccn2)C2CC2)cn2ccnc12 (single isomer, unassigned) [Example 367B, 4-amino-2-(8-butylimidazo[1,2-a]pyrazin-6-yl)-5-cyclopropyl-5-(4-(trifluoromethyl)pyridin-2-yl)-5H-pyrrolo[2,3-d]pyrimidin-6(7H)-one] | 170% | 6.81 | – |
| CC(C)Cc1nc(-c2nc(N)c3c(n2)NC(=O)C3(C)c2ccc(F)cc2)cn2ccnc12 (centres unmarked) [Example 19A, 4-amino-5-(4-fluorophenyl)-2-(8-isobutylimidazo[1,2-a]pyrazin-6-yl)-5-methyl-5H-pyrrolo[2,3-d]pyrimidin-6(7H)-one] | 113% | 6.41 | – |
| CCCCc1nc(-c2nc(N)c3c(n2)NC(=O)C3(c2ccc(C(F)(F)F)cn2)C2CC2)cn2ccnc12 (centres unmarked) [Example 133A, 4-amino-2-(8-butylimidazo[1,2-a]pyrazin-6-yl)-5-cyclopropyl-5-(5-(trifluoromethyl)pyridin-2-yl)-5H-pyrrolo[2,3-d]pyrimidin-6(7H)-one] | 129% | 7.43 | – |
| Nc1nc(-c2cn3ccnc3c(Cc3ccccc3F)n2)nc2c1C(c1ccc(Cl)cn1)(C1CC1)C(=O)N2 (single isomer, unassigned) [Example 110B, 4-amino-5-(5-chloropyridin-2-yl)-5-cyclopropyl-2-(8-(2-fluorobenzyl)imidazo[1,2-a]pyrazin-6-yl)-5H-pyrrolo[2,3-d]pyrimidin-6(7H)-one] | 151% | 7.96 | – |
| CC1(c2ccc(Cl)c(F)c2)C(=O)Nc2nc(-c3cn4ccnc4c(CCCC(F)(F)F)n3)nc(N)c21 (centres unmarked) [Example 204B, 4-amino-5-(4-chloro-3-fluorophenyl)-5-methyl-2-(8-(4,4,4-trifluorobutyl)imidazo[1,2-a]pyrazin-6-yl)-5H-pyrrolo[2,3-d]pyrimidin-6(7H)-one] | 110% | 7.85 | – |
| CC(C)n1cc(C2(C)C(=O)Nc3nc(-c4cn5ccnc5c(Cc5ccc(F)cc5)n4)nc(N)c32)nn1 (centres unmarked) [Example 63A, 4-Amino-2-(8-(4-fluorobenzyl)imidazo[1,2-a]pyrazin-6-yl)-5-(1-isopropyl-1H-1,2,3-triazol-4-yl)-5-methyl-5H-pyrrolo[2,3-d]pyrimidin-6(7H)-one] | 99% | 6.96 | – |
| CC1(C(=O)NC2CC2)C(=O)Nc2nc(-c3cn4cc(C(F)(F)F)nc4c(Cc4cccc(F)c4)n3)nc(N)c21 (centres unmarked) [Example 46A, 4-amino-N-cyclopropyl-2-(8-(3-fluorobenzyl)-2-(trifluoromethyl)imidazo[1,2-a]pyrazin-6-yl)-5-methyl-6-oxo-6,7-dihydro-5H-pyrrolo[2,3-d]pyrimidine-5-carboxamide] | 124% | 6.24 | – |
| CC1(c2ccc(Cl)c(F)c2)C(=O)Nc2nc(-c3cn4ccnc4c(CC4CCC4)n3)nc(N)c21 (centres unmarked) [Example 113B, 4-amino-5-(4-chloro-3-fluorophenyl)-2-(8-(cyclobutylmethyl)imidazo [1,2-a]pyrazin-6-yl)-5-methyl-5H-pyrrolo[2,3-d]pyrimidin-6(7H)-one] | 138% | 8.30 | – |
| Nc1nc(-c2cn3ccnc3c(CCC(F)(F)C(F)(F)F)n2)nc2c1C(c1cccnc1)(C1CC1)C(=O)N2 (single isomer, unassigned) [Example 359B, 4-amino-5-cyclopropyl-2-(8-(3,3,4,4,4-pentafluorobutyl)imidazo[1,2-a]pyrazin-6-yl)-5-(pyridin-3-yl)-5H-pyrrolo[2,3-d]pyrimidin-6(7H)-one] | 108% | 6.52 | – |
| Nc1nc(-c2cn3ccnc3c(Cc3cccc(F)c3)n2)nc2c1C(C(=O)NC1CC1)(C1CC1)C(=O)N2 (single isomer, unassigned) [Example 38A, 4-amino-N,5-dicyclopropyl-2-(8-(3-fluorobenzyl)imidazo[1,2-a]pyrazin-6-yl)-6-oxo-6,7-dihydro-5H-pyrrolo[2,3-d]pyrimidine-5-carboxamide] | – | 7.21 | 124% |
| Nc1nc(-c2cn3ccnc3c(CCC(F)(F)C(F)(F)F)n2)nc2c1C(c1nnc(C3CC3)o1)(C1CC1)C(=O)N2 (centres unmarked) [Example 56B, 4-amino-5-cyclopropyl-5-(5-cyclopropyl-1,3,4-oxadiazol-2-yl)-2-(8-(3,3,4,4,4-pentafluorobutyl)imidazo[1,2-a]pyrazin-6-yl)-5H-pyrrolo[2,3-d]pyrimidin-6(7H)-one] | 89% | 6.11 | – |
| CC1(C)CN(c2nc(-c3cn4ccnc4c(CCC(F)(F)C(F)(F)F)n3)nc3c2C(C)(c2ccc(F)cc2)C(=O)N3)C1 (centres unmarked) [Example 302A, 4-(3,3-dimethylazetidin-1-yl)-5-(4-fluorophenyl)-5-methyl-2-(8-(3,3,4,4,4-pentafluorobutyl)imidazo[1,2-a]pyrazin-6-yl)-5H-pyrrolo[2,3-d]pyrimidin-6(7H)-one] | 105% | 6.26 | – |
| Nc1nc(-c2cn3ccnc3c(Cc3ccccc3F)n2)nc2c1C(c1ccc(Cl)cn1)(C1CC1)C(=O)N2 (centres unmarked) [Example 110A, 4-amino-5-(5-chloropyridin-2-yl)-5-cyclopropyl-2-(8-(2-fluorobenzyl)imidazo[1,2-a]pyrazin-6-yl)-5H-pyrrolo[2,3-d]pyrimidin-6(7H)-one] | 154% | 7.29 | – |
